# ChEMBL document CHEMBL1201862, “PubChem BioAssay data set” (2004)
#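 Test compounds were applied to cells in 96-well plates for 48 hours at 5 doses. GI50 = concentration required for 50% inhibition of growth.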 The source made the active and inactive calls. No stated cut-off is given here; in the data, active = GI50 up to about 1.1 µM and inactive = higher.
# Legend:
# Experiment in all cases: NCI-60 cell line screen, 48 h
# HOP-92 = test system: HOP-92
# UACC-257 = test system: UACC-257
# BT-549 = test system: BT-549
# HT-29 = test system: HT-29
# SF-295 = test system: SF-295
# TK-10 = test system: TK-10
# SNB-75 = test system: SNB-75
# MDA-N = test system: MDA-N
# K562 = test system: K562
# SNB-19 = test system: SNB-19
# COLO 205 = test system: COLO 205
# SF-268 = test system: SF-268
# RXF 393 = test system: RXF 393
# UACC-62 = test system: UACC-62
# KM12 = test system: KM12
# SW-620 = test system: SW-620
# SR = test system: SR
# NCI-H460 = test system: NCI-H460
# PC-3 = test system: PC-3
# Malme-3M = test system: Malme-3M
SMILES,GI50 (HOP-92),GI50 (UACC-257),GI50 (BT-549),GI50 (HT-29),GI50 (SF-295),GI50 (TK-10),GI50 (SNB-75),GI50 (MDA-N),GI50 (K562),GI50 (SNB-19),GI50 (COLO 205),GI50 (SF-268),GI50 (RXF 393),GI50 (UACC-62),GI50 (KM12),GI50 (SW-620),GI50 (SR),GI50 (NCI-H460),GI50 (PC-3),GI50 (Malme-3M)
O=C1C(Cl)=C(OCCCl)C(=O)c2c(O)ccc(O)c21,1.57 µM (inactive),2.59 µM (inactive),13.3 µM (inactive),4.73 µM (inactive),17.5 µM (inactive),2.6 µM (inactive),13 µM (inactive),2.91 µM (inactive),0.267 µM (active),16.7 µM (inactive),1.61 µM (inactive),5.47 µM (inactive),6.44 µM (inactive),3.88 µM (inactive),19.7 µM (inactive),2.05 µM (inactive),0.113 µM (active),18.5 µM (inactive),13.2 µM (inactive),2.89 µM (inactive)
CCOC(=O)c1csc(-c2nc(CCNC(=O)c3ccccc3)sc2Cl)n1,5.74 µM (inactive),> 100 µM (inactive),32.7 µM (inactive),> 100 µM (inactive),> 100 µM (inactive),> 100 µM (inactive),49.4 µM (inactive),> 100 µM (inactive),37.1 µM (inactive),> 100 µM (inactive),77.3 µM (inactive),60 µM (inactive),> 100 µM (inactive),59.3 µM (inactive),69.2 µM (inactive),> 100 µM (inactive),37.1 µM (inactive),34.4 µM (inactive),32.1 µM (inactive),> 100 µM (inactive)
COc1cc([C@@H]2c3cc4c(cc3[C@H](OC3OC5COC(C(C)C)OC5C(O)C3O)C3COC(=O)[C@@H]32)OCO4)cc(OC)c1OC (stereo not given in full),6.85 µM (inactive),5.01 µM (inactive),5.52 µM (inactive),2.54 µM (inactive),3.47 µM (inactive),32 µM (inactive),11.6 µM (inactive),2.18 µM (inactive),3.19 µM (inactive),6.19 µM (inactive),4.59 µM (inactive),5.81 µM (inactive),2.3 µM (inactive),4.7 µM (inactive),3.61 µM (inactive),4.48 µM (inactive),2.11 µM (inactive),2.34 µM (inactive),4.89 µM (inactive),4.57 µM (inactive)
O=C1N(CN2CCOCC2)CN(CN2CCOCC2)C(=O)N1Cc1ccccc1,25.8 µM (inactive),21.7 µM (inactive),21.6 µM (inactive),20.3 µM (inactive),> 100 µM (inactive),> 100 µM (inactive),25.5 µM (inactive),18.2 µM (inactive),24 µM (inactive),> 100 µM (inactive),20.1 µM (inactive),22 µM (inactive),17.7 µM (inactive),22.2 µM (inactive),23.8 µM (inactive),22 µM (inactive),18.8 µM (inactive),32.6 µM (inactive),29.9 µM (inactive),15.2 µM (inactive)
CC(C)(C)OC(=O)NC(Cc1ccc(OCc2ccccc2)cn1)C(=O)NCc1ccccc1 (stereo not given),20 µM (inactive),16.9 µM (inactive),20.7 µM (inactive),29.9 µM (inactive),21.2 µM (inactive),30.3 µM (inactive),27.1 µM (inactive),19.8 µM (inactive),22.1 µM (inactive),49.9 µM (inactive),17.1 µM (inactive),23.6 µM (inactive),27.9 µM (inactive),14.5 µM (inactive),29.7 µM (inactive),31.3 µM (inactive),10.1 µM (inactive),22.7 µM (inactive),20.4 µM (inactive),22.8 µM (inactive)
CCCC(=O)Nc1cc(C(=O)N2C[C@H]3C[C@@]34C2=CC(=O)c2[nH]cc(C)c24)n(COC)c1,0.245 µM (active),0.171 µM (active),0.253 µM (active),0.467 µM (active),0.735 µM (active),0.556 µM (active),0.248 µM (active),0.582 µM (active),0.131 µM (active),0.498 µM (active),0.442 µM (active),0.103 µM (active),0.164 µM (active),0.195 µM (active),0.449 µM (active),0.0169 µM (active),0.00516 µM (active),0.317 µM (active),0.745 µM (active),0.105 µM (active)
CN1CCN([C@H]2C[C@H]3[C@@H]4CC=C5C[C@@H](O)CC[C@]5(C)[C@H]4CC[C@]3(C)[C@H]2O)CC1,> 100 µM (inactive),> 49 µM (inactive),> 81.8 µM (inactive),7.29 µM (inactive),> 78.3 µM (inactive),> 100 µM (inactive),> 49.2 µM (inactive),19 µM (inactive),19 µM (inactive),> 45.5 µM (inactive),> 67.8 µM (inactive),> 41.7 µM (inactive),16.9 µM (inactive),> 44 µM (inactive),> 53.8 µM (inactive),20.7 µM (inactive),25.8 µM (inactive),> 42.7 µM (inactive),> 51.2 µM (inactive),> 43.2 µM (inactive)
O=Cc1c2ccccc2n2ccc3c4ccccc4[nH]c3c12,> 10 µM (inactive),> 10 µM (inactive),> 10 µM (inactive),> 10 µM (inactive),> 10 µM (inactive),> 10 µM (inactive),> 10 µM (inactive),> 10 µM (inactive),> 10 µM (inactive),> 10 µM (inactive),> 10 µM (inactive),> 10 µM (inactive),> 10 µM (inactive),> 10 µM (inactive),0.344 µM (active),> 10 µM (inactive),8.77 µM (inactive),> 10 µM (inactive),> 10 µM (inactive),> 10 µM (inactive)
Oc1ccc(O)c(CNc2ccccc2)c1,5.07 µM (inactive),16.9 µM (inactive),7.93 µM (inactive),32.2 µM (inactive),12.1 µM (inactive),22.7 µM (inactive),33.5 µM (inactive),3.85 µM (inactive),1.65 µM (inactive),19.5 µM (inactive),18.8 µM (inactive),11.6 µM (inactive),5.64 µM (inactive),13.3 µM (inactive),5.13 µM (inactive),13.6 µM (inactive),2.29 µM (inactive),20.8 µM (inactive),10.1 µM (inactive),14.2 µM (inactive)
COc1ccc(N2C(=O)C3ON(C(C(N)=O)c4ccccc4)C(c4cc5ccccc5c5ccccc45)C3C2=O)cc1 (stereo not given),47.1 µM (inactive),22.7 µM (inactive),24.7 µM (inactive),18 µM (inactive),> 50 µM (inactive),28.8 µM (inactive),40.1 µM (inactive),11.8 µM (inactive),22.9 µM (inactive),> 50 µM (inactive),19.6 µM (inactive),40.9 µM (inactive),21.8 µM (inactive),10.6 µM (inactive),32.3 µM (inactive),26.9 µM (inactive),16.1 µM (inactive),> 50 µM (inactive),30.7 µM (inactive),> 50 µM (inactive)
O=C1Nc2ccccc2S/C1=C\c1cccc(C(F)(F)F)c1,60.1 µM (inactive),> 100 µM (inactive),> 100 µM (inactive),> 100 µM (inactive),> 100 µM (inactive),> 100 µM (inactive),> 100 µM (inactive),> 100 µM (inactive),> 100 µM (inactive),> 100 µM (inactive),> 100 µM (inactive),> 100 µM (inactive),> 100 µM (inactive),> 100 µM (inactive),> 100 µM (inactive),> 100 µM (inactive),> 100 µM (inactive),> 100 µM (inactive),> 100 µM (inactive),> 100 µM (inactive)
CS(=O)(=O)OCCN(CCOS(C)(=O)=O)c1ccc(/C=N/c2ccc(-c3csc(COc4ccccc4)n3)cc2)cc1,15.6 µM (inactive),10.2 µM (inactive),10.7 µM (inactive),4.31 µM (inactive),0.807 µM (active),3.05 µM (inactive),1.9 µM (inactive),11 µM (inactive),5.02 µM (inactive),9.16 µM (inactive),2.07 µM (inactive),2.49 µM (inactive),0.461 µM (active),1.87 µM (inactive),4.78 µM (inactive),8.09 µM (inactive),0.222 µM (active),0.0708 µM (active),7.06 µM (inactive),12.8 µM (inactive)
C=C(Cl)C(Cl)(CBr)CCC(Cl)C(C)C (stereo not given),1.6 µM (inactive),1.37 µM (inactive),14.3 µM (inactive),0.222 µM (active),2.22 µM (inactive),1.33 µM (inactive),0.323 µM (active),3.72 µM (inactive),30.8 µM (inactive),4.04 µM (inactive),4.79 µM (inactive),1.72 µM (inactive),6.3 µM (inactive),3.08 µM (inactive),1.23 µM (inactive),2.47 µM (inactive),> 36.6 µM (inactive),1.98 µM (inactive),1.68 µM (inactive),8.28 µM (inactive)
COc1ccc2c(c1)C(OC)C1c3c(cc4c(c3-2)OCO4)CCN1C (stereo not given),0.925 µM (active),3.38 µM (inactive),2.28 µM (inactive),2.21 µM (inactive),2.38 µM (inactive),4.53 µM (inactive),4.05 µM (inactive),2.86 µM (inactive),3.63 µM (inactive),3.12 µM (inactive),2.79 µM (inactive),4.63 µM (inactive),2.06 µM (inactive),2.11 µM (inactive),4.34 µM (inactive),2.32 µM (inactive),2.4 µM (inactive),2.82 µM (inactive),2.6 µM (inactive),2 µM (inactive)
